Experimental findings from patent US8629284B2, “Chemical compounds” (Syngenta Crop Protection, LLC, priority 2008, dated 2014) are described below.

Assay [1] has as its system Myzus persicae. Put plainly: B3: Myzus persicae (green peach aphid), mixed population, systemic/feeding activity, curative. The format is in vivo. The following applies: 144 h, roots of infested pea seedlings in test solution of 24 ppm, 6 days after introduction, read-out: control of Myzus persicae (mortality). From the text:
B3: Myzus persicae (green peach aphid) (mixed population, systemic/feeding activity, curative)
Roots of pea seedlings, infested with an aphid population of mixed ages, were placed directly in the test solutions of 24 ppm. 6 days after introduction, samples were checked for mortality and special effects on the plant.

For assay [2], the system named is Myzus persicae. Put plainly: B2: Myzus persicae (green peach aphid), mixed population, feeding/residual contact activity, preventive. Conditions: foliar, 144 h, sunflower leaf discs sprayed with 200 ppm, 6 days incubation, read-out: control of Myzus persicae (mortality). Format: in vivo. As to the method:
B2: Myzus persicae (green peach aphid) (mixed population, feeding/residual contact activity, preventive)
Sunflower leaf discs were placed on agar in a 24-well microtiter plate and sprayed with test solutions of 200 ppm. After drying, the leaf discs were infested with an aphid population of mixed ages. After an incubation period of 6 days, samples were checked for mortality and special effects (e.g. phytotoxicity).

One may read the mortality as the percentage killed. Turning to `CCNC1=NS(=O)(=O)c2cccc(F)c21` [Compound P1.15, N-Ethyl-4-fluoro-1,2-benzisothiazol-3-amine 1,1-dioxide], the mortality at 24 ppm in the assay on Myzus persicae [1] is not below 80%. Further, the mortality at 200 ppm in the assay with Myzus persicae [2] is not below 65%. As for `N=C1c2c(F)cccc2S(=O)(=O)N1CC1CC1` [Compound P2.3, 4-Fluoro-2-cyclopropylmethyl-1,2-benzisothiazol-3(2H)-imine 1,1-dioxide], in the assay on Myzus persicae [1], the mortality at 24 ppm is not below 80%.
